The source of these data is patent US10647743B2, “Method of making biologically active alpha-beta peptides” (priority 2008, dated 2020).

Data set [1] has as its target T1, proteinase K (Parengyodontium album, UniProt P06873). In words: in vitro. To be noted: for half-life at 20 μM: proteinase K solution in TBS.
Data set [2] addresses gp41-5 (Human immunodeficiency virus type 1 group M subtype B, UniProt P04578, C598G/DEL582-595/DEL601-626/T627G/W596S). As to the kind of experiment: biochemical. It is filed as binding, HIV. Conditions: for Ki: competition FP.
Data set [3] has as its target T1, proteinase K. To be noted: for fold improvement in stability to proteinase K relative to α-peptide 3: relative to 3.
Data set [4] has as its target T2, NHR α-peptide 1 (Human immunodeficiency virus type 1 group M subtype B, UniProt P04578).
T2 construct: made in house; host or cells: chemical synthesis (Fmoc solid phase)
As to the kind of experiment: CD thermal unfolding of 1:1 NHR + CHR peptide mixtures. It is filed as physicochemical, HIV. To be noted: Table 2; CD at 222 nm, 1:1 mixture with NHR α-peptide 1, PBS, 20 μM total peptide. The method, then: The interactions of select α/β-peptides with the gp41 NHR domain were further investigated by circular dichroism (CD) spectroscopy. The CD spectra of 3, 4, 5, 8, 9 and were measured, both alone (see FIG. 5A) and in a 1:1 mixture with NHR α-peptide 1 (see FIGS. 3A, 3B, 3C, and 3D, respectively). See also FIGS. 5B and 5C for the superimposed spectra. […] The magnitude of the CD signatures among the well-folded mixtures (1+3, 1+5 and 1+10, FIGS. 3A, 3C, and 3D, respectively) are similar, but the ratio of intensities at 208 and 222 nm changes as a function of β-residue content (more β-residues tracks with a less intense peak at 222 nm).
The interactions of CHR α-peptide 3 and α/β-peptide analogues 4, 5, 8 and 10 with a peptide derived from the gp41 NHR domain (1) were investigated by circular dichroism (CD) spectroscopy. […] The magnitude of the CD signatures among the well-folded mixtures (1+3, 1+5, 1+8 and 1+10) are similar, but the ratio of intensities at 208 and 222 nm changes as a function of β-residue content (higher β-residue content is correlated with a less intense peak at 222 nm). This trend is consistent with previous studies on helical oligomers containing mixed α/β backbones.
Circular Dichroism Spectroscopy. Circular dichroism measurements were carried out on an Aviv 202SF Circular Dichroism Spectrophotometer. Samples of each peptide were prepared at 20 μM concentration in PBS. Solutions of 1:1 peptide mixtures were prepared by mixing equal volumes from the same 20 μM stock solutions used for individual peptide measurements. Spectra were recorded in a 1 mm cell with a step size of 1 nm and an averaging time of 5 sec. All spectra are background corrected against buffer measured in the same cell. Thermal melts were carried out in 5-degree increments with an equilibration time of 10 min between each temperature change. Thermal unfolding data were fit to a simple two state folding model Shortle, D.; Meeker, A. K.; Freire, E. Biochemistry 1988, 27, 4761-4768) using GraphPad Prism.

Data set [5] has as its system HIV-1 HC4. Conditions: read-out: Inhibition of HIV-1 infectivity, IC50 (nM), X4 strains, HC4; TZM-bl cells; mean ± S.E.M., three experiments.
For data set [6], the system named is HIV-1 DJ258. To be noted: read-out: Inhibition of HIV-1 infectivity, IC50 (nM), R5 strains, DJ258; TZM-bl cells; mean ± S.E.M., three experiments.
The test system of data set [7] is HIV-1 NL4-3. Conditions: read-out: Inhibition of HIV-1 infectivity, IC50 (nM), X4 strains, NL4-3; TZM-bl cells; mean ± S.E.M., three experiments.
Data set [8] has as its system HIV-1 CC 1/85. Conditions: read-out: Inhibition of HIV-1 infectivity, IC50 (nM), R5 strains, CC 1/85; TZM-bl cells; mean ± S.E.M., three experiments.
For data set [9], the target named is T3, envelope glycoprotein of the HIV-1 clone HXB2 (Human immunodeficiency virus type 1 group M subtype B, UniProt P04578).
T3 construct: One cell line expresses HIV-1 Env (processed by cellular proteases to generate gp120+gp41); expressed in transfected cells; host or cells: CHO cells expressing HXB2 env (and Tat); U373-MAGI target cells
In words: cell-cell fusion assay. It is filed as cell-based.

[10] abbreviates: Tritirachium album (source organism of proteinase K).
Where [11] appears, read: Table 4, read-out: gp41-5 binding affinity by FP Ki.

SMILES strings stand for the structures. Like-named read-outs stand apart in the source and are kept apart here. *1 amine or outer side, *2 acyl side, *3 side chain or, on linkers, in order; H or OH if unused. Where a SMILES comes first, the peptide text is derived from it. [ ]: non-standard residue; d: D form. ξ: configuration not given here. ξ(4-Aminopyrrolidine-3-CO) = O=C(C1CNCC1N[*:1])[*:2]; β3hT = C[C@@H](O)[C@H](N)CC(=O)O; β3hE = N[C@@H](CCC(=O)O)CC(=O)O; X1 = O=C(C1CCCC1N[*:1])[*:2]

What is called half-life is how long it takes for the measured level to halve. A high value points to slow loss. What is called Ki is the dissociation constant of the complex between target and ligand, obtained from inhibition or displacement.

T1 sequence (P06873 106-384): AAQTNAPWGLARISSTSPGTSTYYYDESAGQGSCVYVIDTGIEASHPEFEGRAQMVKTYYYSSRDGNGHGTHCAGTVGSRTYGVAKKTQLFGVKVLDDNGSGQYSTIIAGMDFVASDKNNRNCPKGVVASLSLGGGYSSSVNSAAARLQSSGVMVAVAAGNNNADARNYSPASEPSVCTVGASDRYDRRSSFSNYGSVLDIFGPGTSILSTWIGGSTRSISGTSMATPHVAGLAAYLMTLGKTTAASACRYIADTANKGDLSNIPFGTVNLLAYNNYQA

Turning to `CC[C@H](C)[C@H](NC(=O)[C@H](C)NC(=O)C1CNCC1NC(=O)[C@H](CC(=O)O)NC(=O)[C@H](Cc1c[nH]c2ccccc12)NC(=O)C1CCCC1NC(=O)[C@H](CCC(=O)O)NC(=O)[C@H](Cc1c[nH]c2ccccc12)NC(=O)[C@@H](NC(=O)C[C@@H](NC(C)=O)[C@@H](C)O)[C@@H](C)O)C(=O)N[C@@H](C)C(=O)N[C@@H](CCC(=O)O)CC(=O)N[C@@H](Cc1ccc(O)cc1)C(=O)N[C@@H](C)C(=O)NC1CCCC1C(=O)N[C@@H](CCCNC(=N)N)C(=O)N[C@H](C(=O)N[C@@H](CCC(=O)O)C(=O)NC1CCCC1C(=O)N[C@@H](CC(C)C)C(=O)N[C@H](C(=O)NC1CNCC1C(=O)N[C@@H](C)C(=O)N[C@@H](C)C(=O)N[C@@H](CCC(N)=O)C(=O)N[C@@H](CCC(=O)O)CC(=O)N[C@@H](CCC(N)=O)C(=O)N[C@@H](CCC(N)=O)C(=O)N[C@@H](CCC(=O)O)CC(=O)N[C@@H](CCCCN)C(=O)N[C@@H](CC(N)=O)C(=O)N[C@@H](CCC(=O)O)C(=O)NC1CCCC1C(=O)N[C@@H](C)C(=O)N[C@@H](CC(C)C)C(=O)NC1CNCC1C(=O)N[C@@H](CCC(=O)O)C(=O)N[C@@H](CC(C)C)C(N)=O)[C@@H](C)CC)[C@@H](C)CC` (stereo partly drawn) [compound 10, Ac-TTWEXWDZAIAEYAXRIEXLIZAAQEQQEKNEXALZEL-NH2] (Ac-[β3hT]TWE[X1]WD[ξ(4-Aminopyrrolidine-3-CO)]AIA[β3hE]YA[X1]RIE[X1]LI[ξ(4-Aminopyrrolidine-3-CO)]AAQ[β3hE]QQ[β3hE]KNE[X1]AL[ξ(4-Aminopyrrolidine-3-CO)]EL-NH2), the half-life in data set [1] is 200 min. For the same compound, the “fold difference in affinity for gp41-5 relative to 5” value in [2] is reported as above 45 fold. Besides, the “fold higher affinity for gp41-5 relative to 4” value in data set [2] (relative to 4) is recorded as around 380 fold. In data set [2] (relative to 9), the “fold improvement of Ki relative to 9” value is around 10 fold. Besides, the “fold improvement in stability to proteinase K relative to α-peptide 3” value in data set [3] is recorded as 280 fold. Besides, the “NHR + CHR Tm (° C.)” value in data set [4] is 55 °C.

As for `CC[C@H](C)[C@H](NC(=O)[C@H](C)NC(=O)[C@H](CCCNC(=N)N)NC(=O)[C@H](CC(=O)O)NC(=O)[C@H](Cc1c[nH]c2ccccc12)NC(=O)[C@H](C)NC(=O)[C@H](CCC(=O)O)NC(=O)[C@H](Cc1c[nH]c2ccccc12)NC(=O)[C@@H](NC(=O)[C@@H](NC(C)=O)[C@@H](C)O)[C@@H](C)O)C(=O)N[C@@H](C)C(=O)N[C@@H](CCC(=O)O)C(=O)N[C@@H](Cc1ccc(O)cc1)C(=O)N[C@@H](C)C(=O)N[C@@H](C)C(=O)N[C@@H](CCCNC(=N)N)C(=O)N[C@H](C(=O)N[C@@H](CCC(=O)O)C(=O)N[C@@H](C)C(=O)N[C@@H](CC(C)C)C(=O)N[C@H](C(=O)N[C@@H](CCCNC(=N)N)C(=O)N[C@@H](C)C(=O)N[C@@H](C)C(=O)N[C@@H](CCC(N)=O)C(=O)N[C@@H](CCC(=O)O)C(=O)N[C@@H](CCC(N)=O)C(=O)N[C@@H](CCC(N)=O)C(=O)N[C@@H](CCC(=O)O)C(=O)N[C@@H](CCCCN)C(=O)N[C@@H](CC(N)=O)C(=O)N[C@@H](CCC(=O)O)C(=O)N[C@@H](C)C(=O)N[C@@H](C)C(=O)N[C@@H](CC(C)C)C(=O)N[C@@H](CCCNC(=N)N)C(=O)N[C@@H](CCC(=O)O)C(=O)N[C@@H](CC(C)C)C(N)=O)[C@@H](C)CC)[C@@H](C)CC` [compound 3, reference compound], the IC50 is 27 ± 4 nM in data set [5]; 58 ± 6 nM in data set [6]; 5 ± 0.6 nM in data set [7]; 140 ± 20 nM in [8]; 0.009 ± 0.003 µM in data set [9]. Further, the half-life at 20 μM in data set [1] (setting [10]) and in data set [1] was 0.7 min throughout. The Ki was at most 0.0002 µM in data set [2] (Table 2, read-out: gp41-5 Ki); below 0.0002 µM in [2] (setting [11]); below 0.0002 µM in data set [2] (read-out: Ki for gp41-5). Further, the “degradation by proteinase K” value in data set [3] (under the assay conditions) is given as “completely degraded within minutes”. Further, in data set [4], the “NHR + CHR Tm (° C.)” value was determined as 77 °C.

Regarding `CC[C@H](C)[C@H](NC(=O)[C@H](C)NC(=O)C[C@H](CCCNC(=N)N)NC(=O)[C@H](CC(=O)O)NC(=O)[C@H](Cc1c[nH]c2ccccc12)NC(=O)C[C@H](C)NC(=O)[C@H](CCC(=O)O)NC(=O)[C@H](Cc1c[nH]c2ccccc12)NC(=O)[C@@H](NC(=O)C[C@@H](NC(C)=O)[C@@H](C)O)[C@@H](C)O)C(=O)N[C@@H](C)C(=O)N[C@@H](CCC(=O)O)CC(=O)N[C@@H](Cc1ccc(O)cc1)C(=O)N[C@@H](C)C(=O)N[C@@H](C)CC(=O)N[C@@H](CCCNC(=N)N)C(=O)N[C@H](C(=O)N[C@@H](CCC(=O)O)C(=O)N[C@@H](C)CC(=O)N[C@@H](CC(C)C)C(=O)N[C@H](C(=O)N[C@@H](CCCNC(=N)N)CC(=O)N[C@@H](C)C(=O)N[C@@H](C)C(=O)N[C@@H](CCC(N)=O)C(=O)N[C@@H](CCC(=O)O)CC(=O)N[C@@H](CCC(N)=O)C(=O)N[C@@H](CCC(N)=O)C(=O)N[C@@H](CCC(=O)O)CC(=O)N[C@@H](CCCCN)C(=O)N[C@@H](CC(N)=O)C(=O)N[C@@H](CCC(=O)O)C(=O)N[C@@H](C)CC(=O)N[C@@H](C)C(=O)N[C@@H](CC(C)C)C(=O)N[C@@H](CCCNC(=N)N)CC(=O)N[C@@H](CCC(=O)O)C(=O)N[C@@H](CC(C)C)C(N)=O)[C@@H](C)CC)[C@@H](C)CC` [compound 4], the IC50 in data set [5] came to 590 ± 100 nM; in data set [6] it was 960 ± 200 nM; in data set [7], 700 ± 60 nM; in data set [8] it was 1300 ± 100 nM; in data set [9] it was 0.39 ± 0.04 µM. Further, the half-life at 20 μM in [1] (setting [10]) and in data set [1] was 14 min in each case. For the same compound, the Ki in data set [2] (Table 2, read-out: gp41-5 Ki) worked out at 3.8 µM. Besides, the “fold improvement in stability to proteinase K relative to α-peptide 3” value in data set [3] was 20 fold.

Turning to `CC[C@H](C)[C@H](NC(=O)[C@H](C)NC(=O)[C@H](CCCNC(=N)N)NC(=O)[C@H](CC(=O)O)NC(=O)[C@H](Cc1c[nH]c2ccccc12)NC(=O)[C@H](C)NC(=O)[C@H](CCC(=O)O)NC(=O)[C@H](Cc1c[nH]c2ccccc12)NC(=O)[C@@H](NC(=O)[C@@H](NC(C)=O)[C@@H](C)O)[C@@H](C)O)C(=O)N[C@@H](C)C(=O)N[C@@H](CCC(=O)O)C(=O)N[C@@H](Cc1ccc(O)cc1)C(=O)N[C@@H](C)C(=O)N[C@@H](C)C(=O)N[C@@H](CCCNC(=N)N)C(=O)N[C@H](C(=O)N[C@@H](CCC(=O)O)C(=O)N[C@@H](C)C(=O)N[C@@H](CC(C)C)C(=O)N[C@H](C(=O)N[C@@H](CCCNC(=N)N)CC(=O)N[C@@H](C)C(=O)N[C@@H](C)C(=O)N[C@@H](CCC(N)=O)C(=O)N[C@@H](CCC(=O)O)CC(=O)N[C@@H](CCC(N)=O)C(=O)N[C@@H](CCC(N)=O)C(=O)N[C@@H](CCC(=O)O)CC(=O)N[C@@H](CCCCN)C(=O)N[C@@H](CC(N)=O)C(=O)N[C@@H](CCC(=O)O)C(=O)N[C@@H](C)CC(=O)N[C@@H](C)C(=O)N[C@@H](CC(C)C)C(=O)N[C@@H](CCCNC(=N)N)CC(=O)N[C@@H](CCC(=O)O)C(=O)N[C@@H](CC(C)C)C(N)=O)[C@@H](C)CC)[C@@H](C)CC` [compound 5], the IC50 in data set [5] came to 55 ± 8 nM; in [6], 280 ± 90 nM; in data set [7], 10 ± 2 nM; in data set [8], 270 ± 20 nM; in data set [9], 0.007 ± 0.002 µM. Moreover, the Ki is 0.0002 µM in data set [2] (Table 2, read-out: gp41-5 Ki) and below 0.0002 µM in data set [2] (setting [11]). For the same compound, the “NHR + CHR Tm (° C.)” value in data set [4] was 69 °C.
